In publication PMC7568570, “Resensitizing carbapenem- and colistin-resistant bacteria to antibiotics using auranofin” (Nature Communications, 2020):

Molecular target: T1, MCR-1 (Escherichia coli, UniProt A0A0R6L508)
T1 construct: gene mcr1; MCR-1-S, soluble periplasmic domain, residues 201-541 (200-541aa in Methods)
Test: equilibrium dialysis with ICP-MS (Kd); crystal structure by soaking at […] Å; TLC cleavage inhibition of full-length MCR-1
Type: binding

T1 sequence (A0A0R6L508 201-541): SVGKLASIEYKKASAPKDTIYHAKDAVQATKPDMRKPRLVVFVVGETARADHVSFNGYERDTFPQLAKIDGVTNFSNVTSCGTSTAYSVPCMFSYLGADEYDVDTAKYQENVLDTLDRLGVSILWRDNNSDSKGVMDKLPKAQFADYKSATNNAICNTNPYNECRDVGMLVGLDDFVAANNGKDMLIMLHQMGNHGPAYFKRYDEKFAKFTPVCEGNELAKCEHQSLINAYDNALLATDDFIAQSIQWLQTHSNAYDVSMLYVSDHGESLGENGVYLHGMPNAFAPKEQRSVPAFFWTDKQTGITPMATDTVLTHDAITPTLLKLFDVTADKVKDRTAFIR

CC[P+](CC)(CC)[Au-][Cl] [Au(PEt3)Cl, chloro(triethylphosphine)gold(I)]
Kd: 3.36 ± 0.38 µM
